The source of these data is a melting point compilation (Tetko et al.).

The molecule `COc1cccc(C2CC(=O)CC(=O)C2)c1` registered a melting point of 131 to 133 °C. `O=C(O)Cn1nnc2ccccc21` returned a melting point of 210 to 212 °C. `CC(C)(C)OC(=O)N1CCC(CC#N)CC1` registered a melting point of 72 to 74 °C. As for `Nc1ccc(Cl)cc1C(O)c1ccccc1` (stereo not given), the figure is 105 to 107 °C; as for `CCN(CC)S(=O)(=O)c1cccc(C(=O)NC(C(=O)O)C(C)C)c1` (stereo not given), 110 to 112 °C; as for `Cc1sc(N)nc1-c1cccc([N+](=O)[O-])c1`, 175 to 177 °C. As for `O=c1[nH]c2ccc(I)cc2o1`, the figure is 209 to 211 °C; as for `Nc1nnc(NS(=O)(=O)c2ccccc2)[nH]1`, 303 to 305 °C; as for `FC(F)(F)c1cc(Cl)ccc1-n1nnnc1CCl`, 101 to 103 °C. As for `COc1ccc(/C=C(/C(=O)O)c2cccs2)cc1`, the figure is 205 to 207 °C; as for `O=Cc1ccc(OCC(=O)Nc2ccccc2)cc1`, 125 to 127 °C. For the molecule `Cc1ccc2c(c1)C(=O)N(C(C)C(=O)O)C2=O` (stereo not given), the melting point fell in the range of 141 to 143 °C. In turn, `O=Cc1c(Cl)nc2ccccn12` displayed a melting point of 124 to 126 °C. Molecule `CN(N)C(N)=O` registered a melting point of 108 to 110 °C.

`COc1cc(OC)cc(N2CCC(Br)C2=O)c1` (stereo not given): the melting point lay within 78 to 80 °C.

In turn, `CC(=O)N1CCC(N)CC1` showed a melting point of 19 to 21 °C. As for `O=Cc1c[nH]nc1-c1ccc2c(c1)OCO2`, the figure is 188 to 190 °C; as for `Cn1cc(/C=C/[N+](=O)[O-])cn1`, 127 to 129 °C.

The molecule `CC(C)c1c(C(=O)O)cnn1Cc1ccccc1` gave a melting point of 153 to 155 °C. Then `Cc1ccc(-c2nn(CCC#N)cc2C(=O)O)cc1C`, with 174 to 176 °C; and `CS(=O)(=O)c1ccc(Cl)c(C(=O)O)c1`, with 183 to 185 °C; and `O=C(O)c1ccc(CS(=O)(=O)C(F)F)cc1`, with 218 to 220 °C.

Take `Cc1nnc(-c2cccc([N+](=O)[O-])c2)o1`: the melting point lay in the range of 158 to 160 °C.

For the molecule `NCC(O)COc1ccc2c(c1)CCC(=O)N2` (stereo not given), the melting point was 103 to 105 °C. Then `Nc1ccc(C(=O)NCCN2CCOCC2)cc1`, with 157 to 159 °C. For `CC(C)(C)c1cc(C(=O)O)[nH]n1`, the melting point lay in the range of 195 to 197 °C. Then `COC(=O)c1cc2nc(Cl)ccc2n1C`, with 134 to 136 °C; and `O=C(CCl)c1cnc(N2CCCCC2)s1`, with 118 to 120 °C. Molecule `CS(=O)(=O)NCc1ccccc1` came in with a melting point of 49 to 51 °C. Then `Cc1cc(-n2c(C)cc(C=O)c2C)no1`, with 75 to 77 °C. As for `CCS(=O)(=O)c1cccc(C(=O)O)c1`, the figure is 160 to 162 °C.

In turn, `Nc1ccc(CC(=O)N2CCCc3ccccc32)cc1` had a melting point of 141 to 143 °C. Turning to `COC(=O)c1n[nH]c2ccc(N)cc12`, the melting point was in the range of 181 to 183 °C.

In the case of `COC(=O)C(=O)CC(=O)c1ccc(Cl)cc1Cl`, the melting point is 118 to 120 °C.

`NC(=NO)c1ccccc1CN1CCCCC1` gave a melting point of 114 to 116 °C.

For `O=C(O)c1cnc(-c2ccsc2)s1`, the melting point was 208 to 210 °C. As for `Fc1cc(CBr)ccc1Br`, the figure is 38 to 40 °C. As for `Cc1c(NC(=O)CSc2nnc(N)s2)c(=O)n(-c2ccccc2)n1C`, the figure is 142 to 144 °C; as for `O=C(O)c1cnc2ccccc2c1SC1CCCC1`, 111 to 113 °C.

Take `CCn1c2ccccc2c2cc(CNCCCO)ccc21`: the melting point lay in the range of 76 to 78 °C. Consider `NC(=O)C1CCCn2ccnc21` (stereo not given), for which the melting point was 177 to 179 °C. Then `Cc1ccc2[nH]c(C(=O)O)cc2c1C`, with 243 to 245 °C; and `O=Cc1c(-c2ccccc2)nc2ccccn12`, with 144 to 146 °C; and `c1ccc(CCNc2nc(-c3ccccc3)cs2)cc1`, with 115 to 117 °C. `O=Cc1cnc2ncccn12`: the melting point was 197 to 199 °C. As for `O=C(O)c1noc(-c2ccccc2Cl)n1`, the figure is 119 to 121 °C. Then `NC(=S)Cc1cccc(F)c1`, with 69 to 71 °C; and `O=C1NC(=O)C2(CCC(c3ccccc3)CC2)N1` (stereo not given), with 250 to 252 °C; and `Cc1cc(C)n(Cc2cccc(C(=O)O)c2)n1`, with 220 to 222 °C. Then `COc1ccc(-n2c(S)nc3ccccc32)cc1`, with 213 to 215 °C; and `O=C(O)C1=Nc2cccc3cccc(c23)N1`, with 210 to 212 °C.

With `O=C(O)CCOc1ccc(Br)cc1`, the melting point lay in the range of 145 to 147 °C. Then `O=C(O)C1CCC(n2cccc2)CC1` (stereo not given), with 143 to 145 °C. Then `N#CCS(=O)(=O)N1CCCCC1`, with 137 to 139 °C; and `NC1(c2nnn[nH]2)CCC1`, with 254 to 256 °C.

Regarding `CC(C)(C)Sc1ccc(N)cc1`, the melting point lay within 67 to 69 °C.

The molecule `CC(C)CCNS(=O)(=O)Cc1ccc(N)cc1` had a melting point of 111 to 113 °C.

As to `Nc1ccc(NC(=O)c2ccc(F)cc2)cc1C(F)(F)F`, the melting point lay in the range of 120 to 122 °C.

`c1cncc(CNC2=NCCS2)c1`: the melting point is 90 to 92 °C. Then `Cc1ccc2c(c1)C(=O)N(CCC(=O)O)C2=O`, with 163 to 165 °C; and `BrCc1cnn(-c2ccccc2)n1`, with 44 to 46 °C.

As for `O=c1oc2ccccc2o1`, the melting point was 116 to 118 °C. In the case of `Cc1ccc(S(=O)(=O)OC2C=CS(=O)(=O)C2)cc1` (stereo not given), the melting point was in the range of 136 to 138 °C. In turn, `O=C(O)C(=O)Nc1ccc(Br)cc1C(F)(F)F` yielded a melting point of 116 to 118 °C. For the molecule `Cc1c(C(=O)O)cccc1N1CCNC1=O`, the melting point fell in the range of 221 to 223 °C.

`OCCNc1cccnn1` yielded a melting point of 77 to 79 °C. Molecule `CC(C)CS(=O)(=O)CC(=O)O` came in with a melting point of 46 to 48 °C. For `CCC(CC)n1nccc1C(=O)O`, the melting point is 137 to 139 °C.

`COc1ccccc1Nc1ncccc1C(=O)O` came in with a melting point of 175 to 177 °C. In turn, `O=C1Nc2ccc(Br)cc2C12CCCC2` registered a melting point of 201 to 203 °C. Then `O=c1c2ccccc2nc2n1CCO2`, with 160 to 163 °C; and `Cc1ccc(-n2c(N)nc3cc(C)ccc32)cc1`, with 162 to 164 °C; and `Cc1c(C(=O)O)oc2c1ccc1ccccc12`, with 206 to 208 °C. For the molecule `O=c1[nH]cnc2c1CCCN2`, the melting point lay in the range of 258 to 260 °C. Then `O=C(O)CCc1nc(Cc2ccccc2)no1`, with 66 to 68 °C; and `N#Cc1ccc2[nH]cnc2c1`, with 203 to 205 °C; and `NS(=O)(=O)c1cc(C(=O)O)cc2c1CCC2`, with 299 to 301 °C. As for `COC(=O)COc1ccc(N)c(C)c1`, the figure is 104 to 106 °C.

As for `COc1cc(Cl)c(C)cc1NC(=O)CCl`, the melting point fell in the range of 167 to 169 °C. Then `COC(=O)C(Cc1c[nH]c2ccccc12)NC(=O)c1ccc2ccccc2c1` (stereo not given), with 182 to 184 °C; and `OCc1ncc[nH]1`, with 99 to 101 °C. The molecule `CCN(CC)S(=O)(=O)c1ccc2nc(O)cc(C(=O)O)c2c1` showed a melting point of 310 to 312 °C. As for `CCOC(=O)c1sc2nc(CCl)nc(Cl)c2c1C`, the figure is 168 to 170 °C; as for `O=C(CCCl)Nc1cccc([N+](=O)[O-])c1`, 75 to 77 °C; as for `CC(C)(C)Cc1nc(-c2ccc(C(=O)O)cc2)no1`, 227 to 229 °C.

In turn, `N=C(N)NS(=O)(=O)c1ccccc1` returned a melting point of 211 to 213 °C. Then `O=C(O)c1ccc(NS(=O)(=O)c2cccc([N+](=O)[O-])c2)cc1`, with 267 to 269 °C. The molecule `CC1CCN(Cc2nc3sc4c(c3c(=O)[nH]2)CCC4)CC1` displayed a melting point of 256 to 258 °C. Then `Nc1cc(=O)[nH]n1-c1ccc(F)cc1`, with 202 to 204 °C; and `CN1CCC(Nc2cccc3ccccc23)CC1`, with 83 to 85 °C; and `NCc1cc[nH]n1`, with 58 to 60 °C.

As to `Cc1ccc(NS(C)(=O)=O)c(C(=O)O)c1`, the melting point was in the range of 195 to 197 °C. Consider `OCc1cc(Cl)c2nccn2c1`, for which the melting point was 169 to 171 °C.

In turn, `O=C(O)c1ccc(OCC2CCCO2)cc1` (stereo not given) came in with a melting point of 130 to 132 °C. Molecule `O=C(O)C1CC1c1ccncc1` (stereo not given) came in with a melting point of 228 to 230 °C. As for `O=C(O)c1cccc2c3c([nH]c12)CCCC3`, the figure is 190 to 192 °C; as for `NCc1cccc(NC(=O)c2ccccn2)c1`, 74 to 76 °C; as for `COC(=O)c1cccc(S(=O)(=O)Cl)c1`, 51 to 53 °C. As for `O=C(O)c1c[nH]c2nccc(Cl)c12`, the figure is 189 to 191 °C; as for `O=S(=O)(F)c1ccc(Br)cn1`, 92 to 94 °C. Then `CS(=O)(=O)OCC1CCOCC1`, with 61 to 63 °C. `COc1ccc(C2(c3ccc(OC)cc3)NC(=O)NC2=O)cc1` had a melting point of 237 to 239 °C. The molecule `O=[N+]([O-])c1c(F)ccc2ncccc12` registered a melting point of 84 to 86 °C. In turn, `Fc1cc(CCl)c2c(c1)COC(c1ccccc1)O2` (stereo not given) yielded a melting point of 61 to 65 °C. Turning to `C#CCn1ccc2ccccc21`, the melting point is 43 to 45 °C. On to `Cc1nc2ccccn2c1P(c1ccccc1)c1ccccc1`, for which the melting point was in the range of 98 to 100 °C. Consider `O=S(=O)(CCCl)c1cc(Cl)ccc1Cl`, for which the melting point fell in the range of 80 to 82 °C. As for `Cc1cc(NN)ncn1`, the figure is 99 to 101 °C. As for `O=C(O)CCCN1C(=O)CCc2ccccc21`, the figure is 179 to 181 °C; as for `CC1(C#N)CCN(C(=O)C(F)(F)F)CC1`, 41 to 43 °C; as for `Nc1c(-c2ccccc2)ncn1C1CC1`, 148 to 150 °C. For `O=C(O)C(Cc1ccccc1)Cc1ccc(Cl)cc1` (stereo not given), the melting point fell in the range of 79 to 81 °C. As for `COc1ccccc1OCCBr`, the figure is 39 to 41 °C. Take `CN(CCCC(=O)O)C1=NS(=O)(=O)c2ccccc21`: the melting point lay within 159 to 161 °C. As for `O=C1CCc2ccc(Br)cc2N1`, the figure is 176 to 178 °C. As for `O=C(O)C1CCN(c2ncccn2)CC1`, the figure is 94 to 96 °C; as for `CC(C)(Cc1ccccc1)NC(=O)OC(C)(C)C`, 51 to 53 °C; as for `Cc1nc(N)sc1Cc1cccc(Br)c1`, 86 to 88 °C. On to `Cc1cccc(C(N)=O)c1N`, for which the melting point was 145 to 147 °C. Then `Clc1nnc(-c2ccccc2)s1`, with 82 to 84 °C.

The term melting point denotes the temperature of the solid-liquid transition.
